# Patent US10765114B2, “4-amino-6-(pyridyl and 2-substitutedphenyl)-picolinates and 6-amino-2-(pyridyl and 2-substitutedphenyl)-pyrimidine-4-carboxylates and their use as herbicides” (Dow AgroSciences LLC, priority 2013, dated 2020)
# System: Key Grass and Sedge Weeds as well as Grass Crops
# Assay: Post-Emergent Test II (Table 6)
# Assay type: in vivo
# Conditions: post-emergence, 336 h, CYPSS, 70 g ai/ha, 14 days after application, read-out: Visual Growth Reduction (%) 14 Days After Application CYPSS
# Summary of the method: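 Visual injury ratings (0 = no injury, 100 = complete kill) taken 14 days after treatment, relative to untreated controls. Compounds, in an acetone/DMSO aqueous carrier with crop oil and surfactant, were applied by track sprayer at 187 L/ha, in a twofold dilution series from the top rate, to plants at the first to second true-leaf stage.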
row,Compound,pest or weed control at 70 g/ha [%]
1,"COC(=O)c1nc(-c2ccc(I)c(F)c2C)cc(N)c1Cl [Compound 25, methyl 4-amino-3-chloro-6-(3-fluoro-4-Iodo-2-methylphenyl)picolinate]",0 to 29

# Same assay, conditions: post-emergence, 336 h, CYPSS, 140 g ai/ha, 14 days after application, read-out: Visual Growth Reduction (%) 14 Days After Application CYPSS
row,Compound,pest or weed control at 140 g/ha [%]
1,"COC(=O)c1nc(-c2ccc(I)c(F)c2C)cc(N)c1Cl [Compound 25, methyl 4-amino-3-chloro-6-(3-fluoro-4-Iodo-2-methylphenyl)picolinate]",0 to 29

# Same assay, conditions: post-emergence, 336 h, DIGSA: crabgrass (Digitaria sanguinalis), 70 g ai/ha, 14 days after application, read-out: Visual Growth Reduction (%) 14 Days After Application DIGSA
row,Compound,pest or weed control at 70 g/ha [%]
1,"COC(=O)c1nc(-c2ccc(I)c(F)c2C)cc(N)c1Cl [Compound 25, methyl 4-amino-3-chloro-6-(3-fluoro-4-Iodo-2-methylphenyl)picolinate]",0 to 29

# Same assay, conditions: post-emergence, 336 h, DIGSA: crabgrass (Digitaria sanguinalis), 140 g ai/ha, 14 days after application, read-out: Visual Growth Reduction (%) 14 Days After Application DIGSA
row,Compound,pest or weed control at 140 g/ha [%]
1,"COC(=O)c1nc(-c2ccc(I)c(F)c2C)cc(N)c1Cl [Compound 25, methyl 4-amino-3-chloro-6-(3-fluoro-4-Iodo-2-methylphenyl)picolinate]",0 to 29

# Same assay, conditions: post-emergence, 336 h, ECHSS, 70 g ai/ha, 14 days after application, read-out: Visual Growth Reduction (%) 14 Days After Application ECHSS
row,Compound,pest or weed control at 70 g/ha [%]
1,"COC(=O)c1nc(-c2ccc(I)c(F)c2C)cc(N)c1Cl [Compound 25, methyl 4-amino-3-chloro-6-(3-fluoro-4-Iodo-2-methylphenyl)picolinate]",0 to 29

# Same assay, conditions: post-emergence, 336 h, ECHSS, 140 g ai/ha, 14 days after application, read-out: Visual Growth Reduction (%) 14 Days After Application ECHSS
row,Compound,pest or weed control at 140 g/ha [%]
1,"COC(=O)c1nc(-c2ccc(I)c(F)c2C)cc(N)c1Cl [Compound 25, methyl 4-amino-3-chloro-6-(3-fluoro-4-Iodo-2-methylphenyl)picolinate]",0 to 29

# Same assay, conditions: post-emergence, 336 h, ORYSS (crop), 70 g ai/ha, 14 days after application, read-out: Visual Growth Reduction (%) 14 Days After Application ORYSS
row,Compound,pest or weed control at 70 g/ha [%]
1,"COC(=O)c1nc(-c2ccc(I)c(F)c2C)cc(N)c1Cl [Compound 25, methyl 4-amino-3-chloro-6-(3-fluoro-4-Iodo-2-methylphenyl)picolinate]",0 to 29

# Same assay, conditions: post-emergence, 336 h, ORYSS (crop), 140 g ai/ha, 14 days after application, read-out: Visual Growth Reduction (%) 14 Days After Application ORYSS
row,Compound,pest or weed control at 140 g/ha [%]
1,"COC(=O)c1nc(-c2ccc(I)c(F)c2C)cc(N)c1Cl [Compound 25, methyl 4-amino-3-chloro-6-(3-fluoro-4-Iodo-2-methylphenyl)picolinate]",0 to 29

# Same assay, conditions: post-emergence, 336 h, SETFA: giant foxtail (Setaria faberi), 70 g ai/ha, 14 days after application, read-out: Visual Growth Reduction (%) 14 Days After Application SETFA
row,Compound,pest or weed control at 70 g/ha [%]
1,"COC(=O)c1nc(-c2ccc(I)c(F)c2C)cc(N)c1Cl [Compound 25, methyl 4-amino-3-chloro-6-(3-fluoro-4-Iodo-2-methylphenyl)picolinate]",0 to 29

# Same assay, conditions: post-emergence, 336 h, SETFA: giant foxtail (Setaria faberi), 140 g ai/ha, 14 days after application, read-out: Visual Growth Reduction (%) 14 Days After Application SETFA
row,Compound,pest or weed control at 140 g/ha [%]
1,"COC(=O)c1nc(-c2ccc(I)c(F)c2C)cc(N)c1Cl [Compound 25, methyl 4-amino-3-chloro-6-(3-fluoro-4-Iodo-2-methylphenyl)picolinate]",0 to 29

# Same assay, conditions: post-emergence, 336 h, SORVU: grain sorghum (Sorghum vulgare), 70 g ai/ha, 14 days after application, read-out: Visual Growth Reduction (%) 14 Days After Application SORVU
row,Compound,pest or weed control at 70 g/ha [%]
1,"COC(=O)c1nc(-c2ccc(I)c(F)c2C)cc(N)c1Cl [Compound 25, methyl 4-amino-3-chloro-6-(3-fluoro-4-Iodo-2-methylphenyl)picolinate]",0 to 29

# Same assay, conditions: post-emergence, 336 h, SORVU: grain sorghum (Sorghum vulgare), 140 g ai/ha, 14 days after application, read-out: Visual Growth Reduction (%) 14 Days After Application SORVU
row,Compound,pest or weed control at 140 g/ha [%]
1,"COC(=O)c1nc(-c2ccc(I)c(F)c2C)cc(N)c1Cl [Compound 25, methyl 4-amino-3-chloro-6-(3-fluoro-4-Iodo-2-methylphenyl)picolinate]",0 to 29

# Same assay, conditions: post-emergence, 336 h, TRZSS (crop), 70 g ai/ha, 14 days after application, read-out: Visual Growth Reduction (%) 14 Days After Application TRZSS
row,Compound,pest or weed control at 70 g/ha [%]
1,"COC(=O)c1nc(-c2ccc(I)c(F)c2C)cc(N)c1Cl [Compound 25, methyl 4-amino-3-chloro-6-(3-fluoro-4-Iodo-2-methylphenyl)picolinate]",0 to 29

# Same assay, conditions: post-emergence, 336 h, TRZSS (crop), 140 g ai/ha, 14 days after application, read-out: Visual Growth Reduction (%) 14 Days After Application TRZSS
row,Compound,pest or weed control at 140 g/ha [%]
1,"COC(=O)c1nc(-c2ccc(I)c(F)c2C)cc(N)c1Cl [Compound 25, methyl 4-amino-3-chloro-6-(3-fluoro-4-Iodo-2-methylphenyl)picolinate]",0 to 29

# Same assay, conditions: post-emergence, 336 h, ZEAMX: maize, corn (Zea mays), 70 g ai/ha, 14 days after application, read-out: Visual Growth Reduction (%) 14 Days After Application ZEAMX
row,Compound,pest or weed control at 70 g/ha [%]
1,"COC(=O)c1nc(-c2ccc(I)c(F)c2C)cc(N)c1Cl [Compound 25, methyl 4-amino-3-chloro-6-(3-fluoro-4-Iodo-2-methylphenyl)picolinate]",0 to 29
